Earlier results as cited in patent US20070166344A1, “Non-leaching surface-active film compositions for microbial adhesion prevention” (priority 2006, published 2007).

Details: organism not given

## Benzalkonium chloride
  MIC level: about 7.5 ppm
